Source: the NIST ThermoML archive (doi:10.1021/je200421s)

Experiments:
[1] = refractive index (Na D-line) (dimensionless); mn = molality of the nth substance listed, in mol/kg; details: 298.15 K, 101 kPa, Liquid, Standard Abbe refractometry
[2] = mn = molality of the nth substance listed, in mol/kg; details: 101 kPa, Liquid, Vibrating tube method

O [water] + CC(=O)NCCCCCCNC(C)=O
Details | refractive index
[1], m2 = 0 | 1.332

O=C[C@H](O)[C@@H](O)[C@H](O)[C@H](O)CO [D-glucose] + O
mass density [kg/m3], [2]
Details | m1 = 0.05 | m1 = 0.1 | m1 = 0.2 | m1 = 0.3 | m1 = 0.5 | m1 = 0.8
288.15 K | 1002.58 | 1006 | 1012.64 | 1019.21 | 1031.87 | 1050.04
293.15 K | 1001.65 | 1005.04 | 1011.63 | 1018.15 | 1030.73 | 1048.76
298.15 K | 1000.46 | 1003.84 | 1010.38 | 1016.85 | 1029.34 | 1047.27
303.15 K | 999.043 | 1002.39 | – | 1015.33 | 1027.75 | 1045.58
308.15 K | – | 1000.75 | – | 1013.63 | 1025.96 | 1043.7

[1]
Details | refractive index
m1 = 0.05 | 1.3331
m1 = 0.1 | 1.3343
m1 = 0.2 | 1.3368
m1 = 0.3 | 1.3392
m1 = 0.5 | 1.3443
m1 = 0.8 | 1.351

OC[C@H]1O[C@@](CO)(O[C@H]2O[C@H](CO)[C@@H](O)[C@H](O)[C@H]2O)[C@@H](O)[C@@H]1O [D-sucrose] + O
mass density [kg/m3], [2]
Details | m1 = 0.05 | m1 = 0.1 | m1 = 0.2 | m1 = 0.3 | m1 = 0.5 | m1 = 0.8
288.15 K | 1005.67 | 1012.18 | 1024.44 | 1036.52 | 1059.36 | 1089.54
293.15 K | 1004.73 | 1011.2 | 1023.38 | 1035.39 | 1058.1 | 1088.1
298.15 K | 1003.53 | 1009.97 | 1022.08 | 1034.03 | 1056.62 | 1086.46
303.15 K | 1002.11 | 1008.5 | 1020.57 | 1032.45 | 1054.93 | 1084.64
308.15 K | 1000.46 | 1006.83 | 1018.84 | 1030.68 | 1053.07 | 1082.65

[1]
Details | refractive index
m1 = 0.05 | 1.3343
m1 = 0.1 | 1.3368
m1 = 0.2 | 1.3415
m1 = 0.3 | 1.3458
m1 = 0.5 | 1.3542
m1 = 0.8 | 1.3656

CC(=O)NCCCCCCNC(C)=O [N,N'-diacetyl-1,6-hexanediamine] + O
mass density [kg/m3], [2]
Details | m1 = 0.0999 | m1 = 0.1498 | m1 = 0.1998 | m1 = 0.25 | m1 = 0.3001 | m1 = 0.3503 | m1 = 0.3984
288.15 K | 1000.16 | 1000.68 | 1001.23 | 1001.78 | 1002.34 | 1002.88 | 1003.42
293.15 K | 999.201 | 999.691 | 1000.2 | 1000.72 | 1001.25 | 1001.75 | 1002.26
298.15 K | 997.982 | 998.441 | 998.923 | 999.415 | 999.908 | 1000.38 | 1000.87
303.15 K | 996.53 | 996.965 | 997.419 | 997.884 | 998.347 | 998.795 | 999.248
308.15 K | 994.869 | 995.284 | 995.708 | 996.146 | 996.58 | 997.002 | 997.432

[1]
Details | refractive index
m1 = 0.0999 | 1.335
m1 = 0.1498 | 1.3365
m1 = 0.1998 | 1.338
m1 = 0.25 | 1.3396
m1 = 0.3001 | 1.3409
m1 = 0.3503 | 1.342
m1 = 0.3984 | 1.3433
